The values that follow come from US8017646B2, “Histamine H3-receptor ligands and their therapeutic application” (Bioprojet, priority 2005, dated 2011).

The target of data set [1] is human histamine H3 receptors (Homo sapiens, UniProt Q9Y5N1). Briefly: H3 binding ([125I]iodoproxyfan displacement). Particulars: for Ki: membranes expressing human histamine H3 receptors, [125I]iodoproxyfan. As for the experimental part: Membranes expressing human histamine H3 receptors were incubated 1 hour at room temperature in binding buffer containing 50 mM Na2HPO4/KH2PO4 pH 7.5 in a final volume of 200 μl. […] Amersham Pharmacia Biotech) concentrations ranged between 20 and 40 pM. Non-specific binding was determined in the presence of 1 μM Imetit. The reaction was stopped by rapid filtration through GF/B filters (pre-soaked for 2 hours with 0.3% polyethyleneimine) followed by 3 ice cold binding buffer washes. The filter-bound radioactivity was measured in a liquid scintillation counter with 50 μl of scintillation fluid.

Data set [2] has as its target CYP3A4 (Homo sapiens, UniProt P08684). Briefly: Cytochrome inhibition, fluorometric assay, CYP3A4. It is filed as biochemical. Particulars: human recombinant CYP3A4, substrate BFC; read-out: cytochrome inhibition (IC50, concentrations for 50% inhibition) CYP3A4. As for the experimental part:
(§1) The ability of drug in human to inhibit the catalytic activity of cytochrome P-450 isoforms was assayed using microtiter plate-based, fluorometric assays for the activities of the five human major CYP forms. Inhibition potential was determined in vitro after incubation of fluorescent model substrates over various incubation time with human recombinant cytochrome isoforms in the absence or in presence of increasing concentrations of test molecules (from 1 nM to 100 μM), in comparison with specific CYP isoform inhibitors. Data were expressed as quantitative inhibition parameters [inhibitor concentration that produces 50% inhibition (IC50 value)]. Incubation of drug was carried out at 37° C.±0.5° C. under agitation in the presence of human recombinant cytochrome P-450 isoforms and a NADPH generating system. The incubation conditions for each cytochrome isoform were as follow: [table]

In data set [3] the target is CYP2D6 (Homo sapiens, UniProt P10635). Kind of data set: Cytochrome inhibition, fluorometric assay, CYP2D6. It is filed as biochemical. As for the experimental part: as §1, with “value)].” for “value)]. Incubation of drug was carried out at 37° C.±0.5° C. under agitation in the presence of human recombinant cytochrome P-450 isoforms and a NADPH generating system. The incubation conditions for each cytochrome isoform were as follow: [table]”
Incubation of drug was carried out at 37° C.±0.5° C. under agitation in the presence of human recombinant cytochrome P-450 isoforms and a NADPH generating system. The incubation conditions for each cytochrome isoform were as follow: […]

Setting [4] is: human recombinant CYP2D6, substrate AMMC, read-out: cytochrome inhibition (IC50, concentrations for 50% inhibition) CYP2D6.

Molecules are shown by their SMILES. Counter-ions that a name gives are not always drawn. Like-named read-outs stand apart in the source and are kept apart here. A value given as a limit tells only on which side of the number the result lay.

human histamine H3 receptors, sequence (Q9Y5N1 whole entry): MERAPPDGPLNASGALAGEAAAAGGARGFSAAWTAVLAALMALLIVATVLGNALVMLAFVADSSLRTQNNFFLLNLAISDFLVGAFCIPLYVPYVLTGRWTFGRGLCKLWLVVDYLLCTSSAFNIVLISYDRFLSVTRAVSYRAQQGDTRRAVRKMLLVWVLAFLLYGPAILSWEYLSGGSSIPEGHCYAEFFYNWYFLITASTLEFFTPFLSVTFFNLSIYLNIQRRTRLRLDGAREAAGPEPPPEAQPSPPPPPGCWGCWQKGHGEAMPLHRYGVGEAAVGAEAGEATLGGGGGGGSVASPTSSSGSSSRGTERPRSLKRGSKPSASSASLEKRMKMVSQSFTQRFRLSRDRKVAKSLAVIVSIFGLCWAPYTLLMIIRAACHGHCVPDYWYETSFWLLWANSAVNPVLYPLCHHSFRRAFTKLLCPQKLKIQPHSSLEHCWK
CYP3A4, sequence (P08684 whole entry, canonical isoform): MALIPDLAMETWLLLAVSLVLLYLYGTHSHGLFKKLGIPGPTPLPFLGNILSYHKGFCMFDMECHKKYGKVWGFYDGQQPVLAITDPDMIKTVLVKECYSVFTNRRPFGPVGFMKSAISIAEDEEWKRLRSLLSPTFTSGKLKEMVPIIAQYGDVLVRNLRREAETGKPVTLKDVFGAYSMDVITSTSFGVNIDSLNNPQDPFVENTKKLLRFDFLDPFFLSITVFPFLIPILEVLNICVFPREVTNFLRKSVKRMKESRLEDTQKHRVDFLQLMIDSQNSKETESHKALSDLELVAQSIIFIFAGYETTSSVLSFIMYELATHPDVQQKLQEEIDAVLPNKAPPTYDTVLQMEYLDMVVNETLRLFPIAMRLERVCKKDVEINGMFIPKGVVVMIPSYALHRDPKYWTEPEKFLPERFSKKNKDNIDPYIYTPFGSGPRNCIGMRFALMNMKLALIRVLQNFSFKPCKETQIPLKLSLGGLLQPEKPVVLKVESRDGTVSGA
CYP2D6, sequence (P10635 whole entry, canonical isoform): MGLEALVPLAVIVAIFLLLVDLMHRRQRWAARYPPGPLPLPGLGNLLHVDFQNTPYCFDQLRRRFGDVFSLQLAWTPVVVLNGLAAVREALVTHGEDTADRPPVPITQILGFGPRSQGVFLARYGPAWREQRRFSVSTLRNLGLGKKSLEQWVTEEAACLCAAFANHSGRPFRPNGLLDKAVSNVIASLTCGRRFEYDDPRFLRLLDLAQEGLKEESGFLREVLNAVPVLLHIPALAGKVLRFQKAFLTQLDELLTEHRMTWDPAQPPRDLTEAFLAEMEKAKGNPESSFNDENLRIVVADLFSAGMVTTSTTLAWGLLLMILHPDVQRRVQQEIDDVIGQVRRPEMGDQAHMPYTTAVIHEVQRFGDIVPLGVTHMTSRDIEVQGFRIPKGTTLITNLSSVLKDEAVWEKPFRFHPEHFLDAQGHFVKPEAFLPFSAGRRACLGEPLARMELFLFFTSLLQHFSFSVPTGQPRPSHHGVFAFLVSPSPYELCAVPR

By Kd is commonly meant the constant that tells how readily two partners part at equilibrium. As for `Ic1ccc(COCCCc2cnc[nH]2)cc1` [[^125]iodoproxyfan, reference compound], the Kd in data set [1] (radioligand at human H3 receptor membranes, read-out: Kd (hH3 binding)) came out at 0.078 ± 0.006 nM.
As to `C(=C\c1ccc2c(c1)OCCO2)/COCCCN1CCCCC1.O=C(O)C(=O)O` [Example 13, 1-{3-[3-(2,3-dihydrobenzo[1,4]dioxin-6-yl)allyl]oxy}propyl)piperidine, oxalate], the IC50 in data set [2] and in data set [3] (setting [4]) was above 10 µM throughout.
As to `Cc1ccc(CCCOCCCN2CCCCC2)cc1` [Example 4, 1-{3-[3-(4-methylphenyl)propoxy]propyl}piperidine, oxalate], the IC50 in data set [2] and in data set [3] (setting [4]) was above 10 µM throughout.
As to `c1ccc2cc(CCCOCCCN3CCCCC3)ccc2c1` [Example 5, 1-{3-[3-(2-naphtyl)propoxy]propyl}piperidine, oxalate], the IC50 is above 10 µM in data set [2] and above 1 µM in data set [3] (setting [4]).
One may read the Ki as a measure of affinity in units of concentration, obtained from inhibition or displacement. Higher therefore signals a looser hold on the target. For the compound `C(=C\c1ccc2c(c1)OCO2)/COCCCN1CCCC1` [Example 14, trans-1-{3-[3-(benzodioxol-5-yl)allyloxy]propyl}pyrrolidine, oxalate], in data set [1], the Ki came out at 0.0047 µM. Besides, the figures for the IC50 in data set [2] and in data set [3] (setting [4]) were 10.6 µM and 4.4 µM, respectively.
As to `COc1cc(CCCOCCCN2CCCCC2)ccc1O` [Example 6, 1-{3-[3-(4-hydroxy-3-methoxyphenyl)propoxy]propyl}piperidine, oxalate], the IC50 was above 10 µM in data set [2] and above 1 µM in data set [3] (setting [4]).
The corresponding values for `Cc1cc(CCCOCCCN2CCCC2)ccc1F` [Example 10, 1-{3-[3-(4-fluoro-3-methylphenyl)propoxy]propyl}pyrrolidine, oxalate] are above 10 µM and above 1 µM.
For orientation: melting point means the temperature of the solid-liquid transition. In the case of `Fc1ccc(CCCOCCCN2CCCC2)cc1.O=C(O)C(=O)O` [Example 7, 1-{3-[3-(4-fluorophenyl)propoxy]propyl}pyrrolidine, oxalate], the melting point worked out at 106 °C. Also, the IC50 in data set [2] was above 100 µM. Moreover, the IC50 in data set [3] (setting [4]) is 81 µM.
In the case of `C(=C\c1ccc2c(c1)OCCO2)/COCCCN1CCCCC1.O=C(O)C(=O)O` [Example 13], the melting point was found to be 120 °C.
`COc1cc(CCCOCCCN2CCCC2)ccc1F` [Example 9, 1-{3-[3-(4-fluoro-3-methoxyphenyl)propoxy]propyl}pyrrolidine, oxalate] displayed a Ki in data set [1] of 0.0017 µM. Also, the IC50 in data set [2] and in data set [3] (setting [4]) was above 100 µM in each case.
On to `COc1ccc(CCCOCCCN2CCCCC2)cc1OC` [Example 3, 1-{3-[3-(3,4-dimethoxyphenyl)propoxy]propyl}piperidine, oxalate], for which the IC50 in data set [2] and in data set [3] (setting [4]) was above 10 µM in each case.
As to `Clc1ccc(CCCOCCCN2CCCCC2)cc1` [reference compound], in data set [3] (comparative compound disclosed in WO 00/06254, read-out: cytochrome inhibition (IC50) CYP2D6), the IC50 came to 0.059 µM.
Turning to `COc1cc(F)ccc1CCCOCCCN1CCCC1` [Example 11, 1-{3-[3-(4-fluoro-2-methoxyphenyl)propoxy]propyl}pyrrolidine, oxalate], in data set [1], the Ki is 0.00038 µM. The figures for the IC50 in data set [2] and in data set [3] (setting [4]) were 23 µM and 18 µM, respectively.
Turning to `COc1cc(/C=C/COCCCN2CCCC2)ccc1F` [Example 8, trans-1-{3-[3-(4-fluoro-3-methoxyphenyl)allyloxy]propyl}pyrrolidine, oxalate], the values for the IC50 in data set [2] and in data set [3] (setting [4]) were above 10 µM and above 1 µM, respectively.
The corresponding values for `C(=C\c1ccc2occc2c1)/COCCCN1CCCC1` [Example 12, trans-1-{3-[3-(benzofuran-5-yl)allyloxy]propyl}pyrrolidine, oxalate] are above 10 µM and above 1 µM.
Consider `COc1ccc(/C=C/COCCCN2CCCCC2)cc1OC.O=C(O)C(=O)O` [Example 2, trans-1-{3-[3-(3,4-dimethoxyphenyl)allyloxy]propyl}piperidine, oxalate], for which the melting point lay within 111 to 112 °C. The IC50 in data set [2] is above 10 µM. In data set [3] (setting [4]), the IC50 is above 10 µM.
For `COc1ccc(CCCOCCCN2CCCC2)cc1OC` [Example 1, 1-{3-[3-(3,4-dimethoxyphenyl)propoxy]propyl}pyrrolidine, oxalate], the IC50 in data set [2] and in data set [3] (setting [4]) was above 10 µM in each case.
